Measurements: ChEMBL document CHEMBL1139004, “SAR and inhibitor complex structure determination of a novel class of potent and specific Aurora kinase inhibitors” (Bioorg Med Chem Lett, 2006)
≈ marks a conversion by molar mass, not a printed value.

Assays:
[1] = Aqueous solubility of the compound
[2] = Percent of unbound ligand in rat plasma; type: ADME, organism-based
[3] = tested on: MCF7; test: Antiproliferative activity against MCF7 cell line; type: functional, cell-based; conditions: Homo sapiens
[4] = biological target: T1, Aurora kinase A (Homo sapiens, UniProt O14965); test: Inhibitory activity against Aurora A
T1 sequence (O14965 whole entry): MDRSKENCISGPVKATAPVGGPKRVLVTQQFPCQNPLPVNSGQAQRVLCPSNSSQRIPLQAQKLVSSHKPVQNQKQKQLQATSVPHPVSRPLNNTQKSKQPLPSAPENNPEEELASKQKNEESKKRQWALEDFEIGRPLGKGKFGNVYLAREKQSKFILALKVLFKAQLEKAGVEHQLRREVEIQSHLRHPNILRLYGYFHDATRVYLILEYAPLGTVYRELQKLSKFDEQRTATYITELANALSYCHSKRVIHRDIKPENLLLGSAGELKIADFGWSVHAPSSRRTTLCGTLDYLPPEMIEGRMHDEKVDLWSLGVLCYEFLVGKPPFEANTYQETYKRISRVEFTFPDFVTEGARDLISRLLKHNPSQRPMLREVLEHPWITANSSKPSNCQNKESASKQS

[5] = Distribution coefficient of the compound, log D at pH 7.4; type: physicochemical; conditions: octanol/water

SMILES	solubility [1]	fraction unbound [2]	IC50 [3]	IC50 [4]	logD [5]
COc1cc2c(Nc3ccc(NC(=O)c4ccccc4)cc3)ncnc2cc1OCCCN1CCOCC1	2.5 µM (≈ 1.28 µg/mL)	0.003	198 nM		
COc1cc2c(Nc3cnc(NC(=O)c4cccc(Cl)c4)nc3)ncnc2cc1OCCCN1CCCCC1	3600 µM (≈ 1970 µg/mL)		24 nM	0.8 nM	
CCCCC(=O)Nc1ncc(Nc2ncnc3cc(OCCCN4CCOCC4)c(OC)cc23)cn1				17 nM	
COc1cc2c(Nc3ncc(NC(=O)c4ccccc4)cn3)ncnc2cc1OCCCN1CCOCC1				629 nM	
CCCN(CCC)S(=O)(=O)c1ccc(C(=O)Nc2ncc(Nc3ncnc4cc(OCCCN5CCOCC5)c(OC)cc34)cn2)cc1				3900 nM	
COc1cc2c(Nc3cnc(NC(=O)c4ccccc4)nc3)ncnc2cc1OC[C@@H](O)CN1CCCCC1	1500 µM (≈ 794 µg/mL)				
COc1cc2ncnc(Nc3ccc(NC(=O)c4ccccc4)cc3)c2cc1OC [ANILINOQUINAZOLINE1]			1250 nM	393 nM	3.7

Further lines, results first:

solubility [1]	fraction unbound [2]	IC50 [3]	IC50 [4]	logD [5]	SMILES
			70 nM		COc1cc2c(Nc3cnc(NC(=O)c4ccc(C)c(Br)c4)nc3)ncnc2cc1OCCCN1CCOCC1
			690 nM		COc1cc2c(Nc3cnc(NC(=O)c4ccncc4)nc3)ncnc2cc1OCCCN1CCOCC1
			85 nM		CCc1ccc(C(=O)Nc2ncc(Nc3ncnc4cc(OCCCN5CCOCC5)c(OC)cc34)cn2)cc1
		80 nM	< 0.1 nM		COc1cc2c(Nc3cnc(NC(=O)c4cccc(Cl)c4)nc3)ncnc2cc1OCCCN1CCOCC1
	0.045	210 nM	3 nM	2.7	COc1cc2c(Nc3cnc(NC(=O)c4ccccc4)nc3)ncnc2cc1OCCCN1CCOCC1
	0.004	20 nM	0.15 nM		COc1cc2c(Nc3cnc(NC(=O)c4ccc(F)c(Cl)c4)nc3)ncnc2cc1OCCCN1CCOCC1
